From patent publication US20020183258A1, “Process of inhibiting cell death in injured cartilage” (The Scripps Research Institute, priority 2001, published 2002)
Entries after “also recorded” stand apart in the source; their conditions may differ. Where a SMILES comes first, the peptide text is derived from it. The star is where a group is joined. Cbz = O=C(OCc1ccccc1)*; CH2F = FC*

How the values were obtained:
[1] = system: human cartilage explants; test: Load-induced chondrocyte apoptosis (TUNEL) in mechanically injured human cartilage explants; assay type: cell-based; settings: for Mean (±SD) apoptosis rates, Loaded + Agent: human cartilage (femoral condyles and tibial plateaus), n = 8 to 10
Text: Macroscopically normal tibial and femoral articular surfaces were selected from human cadaver donors between 18 and 45 years of age. Using sterile techniques, full thickness cartilage was separated from underlying subchondral bone with a scalpel. 5 mm diameter cylindrical explants, ranging from 2 to 2.8 mm in thickness, cored out using a dermal punch (Acuderm, Inc., Ft. Lauderdale, Fla.). Explants taken from adjacent sites were used as matched controls for each group in each experiment to minimize variation in cartilage response due to differences in thickness and location within the joint. Each explant was weighed and allowed to stabilize at 37° C. and 5% CO2 for 48 hours in Dulbecco's modified Eagle's medium (DMEM) supplemented with 5% fetal bovine serum (FBS), L-glutamine, antibiotics and […] ascorbic acid.
An Instron 8511 servohydraulic testing machine (Instron Corporation, Boston, Mass.) was used to mechanically load the cartilage explants. Explants were transported from the incubator to the Instron machine in sealed cell culture dishes. The total time duration of loading for a single experiment varied from approximately 1 to 2 hours depending on the number of samples. […] Stress and strain data were recorded during the test.
To determine whether caspase inhibitors could prevent apoptosis, explants were cultured in […] z-VAD.fmk (a broad spectrum caspase inhibitor) immediately after injury (30% strain level). Percentage apoptosis was measured at 96 hours post-injury in three groups (control, loaded, and loaded with z-VAD.fmk) with ten explants each in two separate experiments.
Explants loaded as described above were fixed in 10% buffered formalin. […] This was detected by immunohistochemical staining with M30 (Cytodeath, Boehringer Mannheim, Eugene, Oreg.), a monoclonal antibody that recognizes the neo-epitope exposed in early apoptosis.
In an additional study the apoptosis response of human articular cartilage to mechanical stress was examined. […] GAG release and percentage of cells undergoing apoptosis were measured at 96 hours after injury. […]

[2] = system: bovine cartilage explants; test: Load-induced chondrocyte apoptosis (TUNEL) in mechanically injured bovine cartilage explants; assay type: cell-based; settings: for Mean (±SD) apoptosis rates, Loaded + Agent: bovine femoral condyle cartilage, loaded at 23 MPa, rate = percentage of TUNEL positive cells, n = 8 to 10
Text: Macroscopically normal weight bearing portions of freshly slaughtered skeletally mature bovine femoral condyles were selected from animals between 2 and 6 years of age (Animal Technologies, Austin, Tex.). Only joints without visible signs of degeneration or aging were selected. Using sterile techniques, fall thickness cartilage was separated from underlying subchondral bone with a scalpel and 5 mm diameter cylindrical explants, ranging from 1 to 1.8 mm in height, cored out using a dermal punch (Acuderm, Inc., Ft. Lauderdale, Fla.). Explants taken from adjacent sites were used as matched controls for each group in each experiment to minimize variation in cartilage response due to differences in thickness and location within the joint. Each explant was weighed and allowed to stabilize at 37° C. and 5% CO2 for 48 hours in 1 ml of Dulbecco's modified Eagle's medium (DMEM) supplemented with 10% fetal bovine serum (FBS), L-glutamine, antibiotics and 50 μg/ml ascorbic acid.
Full thickness bovine cartilage explants, 5 mm in diameter, were subjected to a single static mechanical load of 7, 14 or 23 MPa for 500 msec. This model simulates traumatic cartilage injury and the loads were similar in magnitude to those generated during traumatic joint injury. Glycosaminoglycan (GAG) release and percent apoptotic cells were measured. The effect of a pan-caspase inhibitor, z-VAD.fmk [benzyloxycarbonyl-Val-Ala-Asp (OMe) fluoromethylketone] in preventing chondrocyte apoptosis was determined. z-VAD.fmk is a fluoromethylketone irreversible inhibitor of a broad spectrum of caspases. […] The percentage of apoptotic chondrocytes was related to load intensity and correlated with the level of GAG release from cartilage. […] This identifies a new approach to limit traumatic cartilage injury and the subsequent development of secondary osteoarthritis.
A model to simulate acute joint injury was used in this study based on injury models reported by Repo and Finlay, and Jeffrey et al. (Repo, et al. (1977) J. Bone Joint Surg. Am. 59A, 1068-1076, Jeffrey, et al. (1995) Arch. Biochem. Biophys. 322, 87-96). Although these reported models impacted cartilage using drop towers, a more controlled method was chosen for applying and maintaining stress or strain as follows. An Instron 8511 servohydraulic testing machine (Instron Corporation, Boston, Mass.) was used to mechanically load the cartilage explants. Explants were transported from the incubator to the Instron machine in sealed cell culture dishes. The explant was centralized on a stainless steel loading platform and a radially unconfined compressive load was applied through an impermeable stainless steel platen. A small preload (0.1 MPa) was applied for 2 minutes, followed by a single 500 msec trapezoidal loading waveform at the selected stress. The stress rose from 0.1 MPa to the chosen stress level in 100 msec and was maintained for 500 msec. Three stress levels were chosen to represent acute joint injury. 7 MPa has been reported to be the upper limit of physiologic stress developed during activities of daily living (von Eisenhart, et al. (1999) J. Orthop. Res. 17, 532-539). 23 MPa is the stress above which the underlying bone has been reported to fracture (Haut (1989) J. Orthop. Res. 7, 272-280). Control explants were placed in the loading apparatus but not loaded. Both control and loaded explants were re-cultured in fresh culture media immediately after loading. Stress and strain data were recorded during the test. […]

[3] = system: bovine cartilage explants; test: Glycosaminoglycan (GAG) release assay (dimethylene blue) in injured bovine cartilage explants; assay type: cell-based; settings: loaded, z-VAD.fmk 100 μM, 48 hours
Procedure: Glycosaminoglycan release assay. To estimate GAG depletion and release, the concentration of sulfated glycosaminoglycans was measured using 1,9-Dimethylene Blue (DMMB) as a monitor of spectrophotometric changes which occur during the formation of the sulfated GAG dye complex (Fardale, et al. (1986) Biochim. Biophys. Acts. 883, 173-177, Goldberg, et al. (1993) Agents Actions 39 Spec No, C163-C165). For GAG content measurement, samples were digested in papain and collagenase and the concentration of sulfated GAG measured using DMMB. To generate a standard curve, chondroitin-6-sulfate (Sigma, St. Louis, Mo.) was used at concentrations between 1 and 200 μg/ml. GAG released in media was normalized to the pooled mean GAG content of Control (uninjured) cartilage explants and expressed as a percentage of total GAG content.
To determine whether apoptosis could be prevented by caspase inhibition, 12 explants were loaded at 23 MPa (High Load) and cultured for 48 hours. […] Six more explants were used as non-loaded controls. Percent apoptosis and GAG release in media was measured as described above.
Release of sulfated glycosaminoglycans (GAG) was analyzed as a measure of the extent of damage sustained by the explant. […] GAG depletion was assessed by dimethylene blue binding assays of the culture supernatants and this correlated with the reduced of safranin O staining of the cartilage sections.

[4] = system: rabbits with ligament transection; test: Intraarticular injection of caspase inhibitor in rabbits with anterior cruciate ligament transection (ACLT); assay type: in vivo, New Zealand White rabbits
Procedure: A pilot study was performed to assess feasibility and efficacy of caspase inhibition in vivo. Eight New Zealand White rabbits were divided into anterior cruciate ligament transection (ACLT) and ACLT+caspase inhibitor (CI) groups. Both groups underwent bilateral ACLT. The ACLT+CI group was treated with intra-articular injections of 25 μg of z-VAD.fmk three times per week for six weeks while the control group received saline injections. Rabbits were euthanised at six weeks and femoral and tibial articular cartilage evaluated by India ink staining and histologic Mankin grading after Safranin-O stain.
Histologically, more knees from the ACLT group had higher Mankin scores. 87% (⅞) ACLT knees had grades 5 or higher, while 50% ( 4/8) ACLT+CI knees were graded 5 or higher. The India ink stained femoral condyles were photographed and digital images were used to quantify the surface areas of the lesions.

IGF-1: agent tested for pharmacologic modulation of apoptosis after cartilage injury in vitro
Mean (±SD) apoptosis rates, Loaded + Agent ([1]; loaded at 30% strain): 10 (±6.2)
Mean (±SD) apoptosis rates, Loaded + Agent [2]: 42 (±10.9)

C[C@@H]1C[C@H]2[C@@H]3CCC4=CC(=O)C=C[C@]4(C)[C@@]3(F)[C@@H](O)C[C@]2(C)[C@@]1(O)C(=O)CO [Dexameth.]
Mean (±SD) apoptosis rates, Loaded + Agent [2]: 47 (±11.2)

COC(=O)CC(NC(=O)C(C)NC(=O)C(NC(=O)OCc1ccccc1)C(C)C)C(=O)CF (stereo not drawn) [z-VAD.fmk, benzyloxycarbonyl-Val-Ala-Asp (OMe) fluoromethylketone] (Cbz-Val-Ala-Asp(OMe)-CH2F; configuration not given here)
Mean (±SD) apoptosis rates, Loaded + Agent ([1]; loaded at 23 MPa (footnote *)): 34 (±10.2)*
reduction in apoptosis rates ([1]; human explants, 30% strain, cultured in 100 mM z-VAD.fmk after injury, 96 hours post-injury, p<0.05): 50%
effect on GAG release / GAG depletion after mechanical injury [3]: reduction in GAG release; also recorded: normalization of the GAG depletion
reduction in the apoptosis rate ([2]; bovine explants, high and intermediate load groups, vs loaded without agent): > 50%
effect on chondrocyte apoptosis after mechanical injury ([2]; bovine explants, single static load, 500 msec): reduced chondrocyte apoptosis after mechanical injury
Mean (±SD) apoptosis rates, Loaded + Agent [2]: 31 (±13.9)
reduction of the size (surface area) of the cartilage lesions ([4]; rabbit ACLT, India ink stained femoral condyles, digital images, six weeks, 25 μg intra-articular three times per week): ~80%
India ink grade of cartilage lesions ([4]; rabbit ACLT, six weeks, 25 μg intra-articular three times per week (ACLT saline: grade III to IVa)): ranged from II (minimum fibrillation), with only one rabbit (two knees) having a Grade III to IVa lesion
area of cartilage lesions under India ink examination ([4]; rabbit ACLT, six weeks, vs ACLT saline group): lesions that were smaller in area
knees with histologic Mankin grades 5 or higher ([4]; rabbit bilateral ACLT, 25 μg intra-articular three times per week for six weeks, 4/8 knees (ACLT saline 87%)): 50%
